Data as given in patent US20080025960A1, “Detergents with stabilized enzyme systems” (priority 2006, published 2008).

Tests used:
[1] = target: T1, glucose oxidase (Aspergillus niger, UniProt P13006); assay: Premature hydrogen peroxide generation by glucose oxidase in control buffer or AATCC liquid detergent stock (as is) with glucose and inhibitor, dipsticks; type: biochemical; settings: for H2O2 PPM: T = 0+, 12, 30, as is, 500 PPM enzyme, 100 mM sodium metabisulfite; for H2O2 PPM / premature hydrogen peroxide generation / Hydrogen Peroxide Generation, PPM H2O2: 500 mM glucose; for H2O2 generated / Hydrogen Peroxide Generation, PPM H2O2 / hydrogen peroxide production: as is; for H2O2 generated: time 0+; for premature hydrogen peroxide generation: liquid detergent formulation, 500 PPM glucose oxidase, over 21 days; for Hydrogen Peroxide Generation, PPM H2O2: T = 0+, 500 PPM oxidase
T1 construct: purchased Genencor OXYGO L-5000
T1 sequence (P13006 17-605): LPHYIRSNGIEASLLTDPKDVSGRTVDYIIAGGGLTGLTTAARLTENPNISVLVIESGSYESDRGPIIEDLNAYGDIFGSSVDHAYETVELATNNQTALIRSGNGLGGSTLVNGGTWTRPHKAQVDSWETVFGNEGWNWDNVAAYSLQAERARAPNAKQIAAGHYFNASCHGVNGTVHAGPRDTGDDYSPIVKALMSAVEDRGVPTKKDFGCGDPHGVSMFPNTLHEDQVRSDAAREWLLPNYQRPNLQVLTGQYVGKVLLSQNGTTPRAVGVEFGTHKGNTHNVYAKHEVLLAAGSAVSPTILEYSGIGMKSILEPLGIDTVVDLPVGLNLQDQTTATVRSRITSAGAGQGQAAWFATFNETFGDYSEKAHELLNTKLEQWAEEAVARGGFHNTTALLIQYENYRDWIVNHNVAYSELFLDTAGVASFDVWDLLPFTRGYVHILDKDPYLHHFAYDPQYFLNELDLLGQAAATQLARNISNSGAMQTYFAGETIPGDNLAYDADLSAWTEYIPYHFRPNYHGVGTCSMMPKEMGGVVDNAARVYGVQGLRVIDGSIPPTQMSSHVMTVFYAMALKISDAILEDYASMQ
From the text: In this Example, experiments conducted to assess the stabilization of glucose oxidase in the presence of its substrate (i.e., glucose) and an inhibitor (i.e., sodium hydrogen sulfite) is described. In these experiments, AATCC standard detergent (American Association of Textile Chemists and Colorists Heavy Duty Liquid detergent version 2003 without brightener; key components include linear alkane sulfonate, alcohol ethoxylate, propanediol, citric acid, fatty acid, castic soda and water; purchased from TestFabrics) was used.
In these experiments, 100 mM Tris pH 8.3, with 0.005% TWEEN®-100 surfactant used as a positive control. […] Three two-ml tubes were weighed with 0.990 g of AATCC detergent (lot # 01282004) and another three tubes with 0.990 g of control buffer. Then, 90 mg (500 mM) of glucose substrate were added to all of the tubes. Next, 100, 50, and 10 mM sodium hydrogen sulfite (MW 106.1) were added to each tube respectively, including the control buffer and AATCC detergent control. All of the tubes were placed on a rotary plate for an hour to allow good mixing and solubilization of glucose into the detergent. Then, 500 PPM (0.5 mg, 14.88 ul) glucose oxidase (OXYGO™ L-5000, 5379 U/ml; 33.6 mg/ml; Genencor) was added to six 2-ml tubes (three with glucose/bisulfite containing control buffers and three with glucose/bisulfite containing AATCC detergent). All of the tubes were then set on the rotary plate (60 rpm) at room temperature. Hydrogen peroxide production was measured using dipsticks (peroxidase/ABTS—Baker Testrips;Baker) at various times—t=0+minutes, 12 minutes, and 30 minutes. The tube containing 100 mM bisulfite with glucose, glucose oxidase in liquid detergent was further monitored for premature generation of hydrogen peroxide further over a period of time starting at 1 hr, 12 hr, 7 days, 12 days and up to 21 days.
In these experiments, 100 mM Tris pH 8.3, with 0.005% TWEEN®-100 surfactant was used as a positive control. […] Three two-ml tubes were weighed with 0.990 g of AATCC detergent (lot # 01282004) and another three tubes with 0.990 g of control buffer.
Three two-ml tubes containing 0.990 g of AATCC detergent (lot # 01282004) and another three tubes with 0.990 g of control buffer were weighed. Then, 90 mg (500 mM) glucose substrate was added to each tube. Then, 100, 50, and 10 mM sodium metabisulfite were added to each tube respectively (i.e., both control buffer and AATCC detergent-containing tubes). All of the tubes were placed on a rotary plate for an hour to allow good mixing and solubilization of glucose into the detergent. Next, 500 PPM (0.5 mg, 14.88 ul) glucose oxidase (OXYGO™ L-5000, 5379 U/ml; 33.6 mg/ml; Genencor) was added to six 2-ml tubes (three with glucose/metabisulfite containing control buffers and three with glucose/metabisulfite containing AATCC detergent). All of the tubes were then set on the rotary plate (60 rpm) at room temperature. H2O2 production was measured using dipsticks (peroxidase/ABTS), as described in Examples 1 and 2, for t=0+ minutes, 12 minutes, and 30 minutes. The tube containing 100 mM bisulfite with glucose, glucose oxidase in liquid detergent was further monitored for premature generation of hydrogen peroxide further over a period of time starting at 1 hr, 12 hr, 7 days, 12 days and up to 21 days.

[2] = target: T2, alcohol oxidase (Pichia angusta, UniProt P04841); assay: Hydrogen peroxide concentration in control buffer or AATCC liquid detergent stock (as is) with alcohol oxidase, ethanol and inhibitor; type: biochemical, Hansunela sp.; settings: for character of alcohol oxidase inhibition: 100 mM concentration tested; for premature generation of H2O2 in AATCC detergent stock / H2O2 PPM: 100 mM inhibitor; for premature generation of H2O2 in AATCC detergent stock: period of investigation 120 minutes; for H2O2 PPM: as is, 1 M ethanol, 10U enzyme
T2 construct: purchased Sigma
T2 sequence (P04841 whole entry): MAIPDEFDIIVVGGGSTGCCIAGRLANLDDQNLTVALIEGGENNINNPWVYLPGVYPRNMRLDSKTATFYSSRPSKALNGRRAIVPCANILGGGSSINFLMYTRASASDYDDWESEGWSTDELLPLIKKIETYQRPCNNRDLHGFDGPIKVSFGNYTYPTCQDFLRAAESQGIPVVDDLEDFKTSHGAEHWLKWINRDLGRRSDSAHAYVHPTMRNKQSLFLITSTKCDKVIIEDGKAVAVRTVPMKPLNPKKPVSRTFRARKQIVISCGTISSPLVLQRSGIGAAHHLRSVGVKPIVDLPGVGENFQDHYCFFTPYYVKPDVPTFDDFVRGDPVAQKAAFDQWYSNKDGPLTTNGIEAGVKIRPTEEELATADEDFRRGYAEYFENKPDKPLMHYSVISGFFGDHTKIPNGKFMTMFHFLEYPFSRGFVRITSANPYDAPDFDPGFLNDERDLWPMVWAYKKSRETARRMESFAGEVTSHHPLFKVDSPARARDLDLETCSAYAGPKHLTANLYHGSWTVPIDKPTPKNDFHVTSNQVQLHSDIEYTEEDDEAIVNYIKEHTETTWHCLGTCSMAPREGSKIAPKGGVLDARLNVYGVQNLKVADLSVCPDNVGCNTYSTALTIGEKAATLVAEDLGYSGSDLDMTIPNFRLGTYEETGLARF
Description: In these experiments, the stability of alcohol oxidase obtained from Hansunela sp., (100 U/ml. 22 U/mg, 13 mg total solid in vial, 7.7 U/mg solid; Sigma) in AATCC liquid detergent was tested. In these experiments, 10 U of the alcohol oxidase were used in liquid detergent stock for each experiment. For testing, 1M ethanol was mixed into the detergent (46 mg ethanol in 990 mg detergent). […] The experiments were conducted as described above in Examples 1 and 3.

[3] = target: T2, alcohol oxidase; assay: Hydrogen peroxide concentration in wash liquor with alcohol oxidase, ethanol and inhibitor; type: biochemical, Hansunela sp.; settings: 2 mM ethanol, 0.02U enzyme, 0.2 mM inhibitor
Description: The stability and activity of the alcohol oxidase enzyme (described in Example 5) in AATCC liquid detergent (Sigma, 100 U/ml. 22 U/mg, 13 mg total solid in vial, 7.7 U/mg solid) was tested upon dilution into wash liquor. In these experiments, 10 U of alcohol oxidase were used in liquid detergent stock for each experiment. In addition, 1M ethanol (substrate) was mixed in detergent (46 mg ethanol in 990 mg detergent). […] In these experiments, 10 ul of final detergent mix or control mix were added to 5 ml of wash liquor. The same methods as described in Examples 2 and 4 were used in these experiments.

With `O=S([O-])S(=O)(=O)[O-].[Na+].[Na+]` [sodium metabisulfite] the “H2O2 PPM” value ([1]; AATCC Detergent) was 0 PPM, the “H2O2 PPM” value ([1]; Control Buffer) was 0 PPM and the H2O2 generated ([1]; buffer control mixture, 10 mM metabisulfite) was 1 PPM. The H2O2 generated ([1]; detergent mixture, 10 mM metabisulfite) was greater than 10 PPM, the H2O2 generated ([1]; detergent mixture, 50 mM metabisulfite) was greater than 10 PPM and the “premature hydrogen peroxide generation” value ([1]; 100 mM inhibitor) was “no premature hydrogen peroxide generation was observed”. The “character of alcohol oxidase inhibition” value [2] was “reversible inhibitors”, the “premature generation of H2O2 in AATCC detergent stock” value [2] was “able to stop premature generation of H2O2” and the “H2O2 PPM” value ([2]; AATCC Detergent, T = 0+) was 0 PPM. The “H2O2 PPM” value ([2]; AATCC Detergent, T = 12 min) was 0 PPM, the “H2O2 PPM” value ([2]; AATCC Detergent, T = 30 min) was 0 PPM and the “H2O2 PPM” value ([2]; AATCC Detergent, T = 120 min) was 0, PPM. The “H2O2 PPM” value ([2]; Control Buffer, T = 0+) was 0 PPM, the “H2O2 PPM” value ([2]; Control Buffer, T = 12 min) was 0 PPM and the “H2O2 PPM” value ([2]; Control Buffer, T = 30 min) was 0 PPM. For the same compound, the “H2O2 PPM” value ([2]; Control Buffer, T = 120 min) was 0 PPM, the “H2O2 PPM” value ([3]; AATCC Detergent, T = 12 min) was 0 PPM and the “H2O2 PPM” value ([3]; AATCC Detergent, T = 30 min) was 0 PPM. For the same compound, the “H2O2 PPM” value ([3]; AATCC Detergent, T = 120 min) was 1 (metabisulfite) PPM, the “H2O2 PPM” value ([3]; Control Buffer, T = 0+) was 0 PPM and the “H2O2 PPM” value ([3]; Control Buffer, T = 12 min) was 0 PPM. For the same compound, the “H2O2 PPM” value ([3]; Control Buffer, T = 30 min) was 0 PPM and the “H2O2 PPM” value ([3]; Control Buffer, T = 120 min) was 0 (metabisulfite) PPM.
With `O=S([O-])O.[Na+]` [bisulfite, sodium hydrogen sulfite] the “Hydrogen Peroxide Generation, PPM H2O2” value ([1]; AATCC Detergent, 10 mM bisulfite) was greater than 10 PPM, the “Hydrogen Peroxide Generation, PPM H2O2” value ([1]; AATCC Detergent, 50 mM bisulfite) was 10 PPM and the “Hydrogen Peroxide Generation, PPM H2O2” value ([1]; AATCC Detergent, 100 mM bisulfite) was 0 PPM. For the same compound, the “Hydrogen Peroxide Generation, PPM H2O2” value ([1]; Control Buffer, 10 mM bisulfite) was 1 PPM, the “Hydrogen Peroxide Generation, PPM H2O2” value ([1]; Control Buffer, 50 mM bisulfite) was 0 PPM and the “Hydrogen Peroxide Generation, PPM H2O2” value ([1]; Control Buffer, 100 mM bisulfite) was 0 PPM. The hydrogen peroxide production ([1]; Example 3 (metabisulfite), buffer control mixture, 50 mM, various time periods tested) was “did not produce any hydrogen peroxide”, the hydrogen peroxide production ([1]; Example 3 (metabisulfite), buffer control mixture, 100 mM, time periods tested) was “did not produce any hydrogen peroxide” and the hydrogen peroxide production ([1]; buffer control mixture, 50 mM bisulfite, various time periods tested) was “did not produce any hydrogen peroxide”. The hydrogen peroxide production ([1]; buffer control mixture, 100 mM bisulfite, time periods tested) was “did not produce any hydrogen peroxide”, the “premature hydrogen peroxide generation” value ([1]; 100 mM sodium hydrogen sulfite) was “no premature hydrogen peroxide generation was observed” and the “character of alcohol oxidase inhibition” value [2] was “reversible inhibitors”. The “premature generation of H2O2 in AATCC detergent stock” value [2] was “able to stop premature generation of H2O2”, the “H2O2 PPM” value ([2]; AATCC Detergent, T = 0+) was 0 PPM and the “H2O2 PPM” value ([2]; AATCC Detergent, T = 12 min) was 0 PPM. For the same compound, the “H2O2 PPM” value ([2]; AATCC Detergent, T = 30 min) was 0 PPM, the “H2O2 PPM” value ([2]; AATCC Detergent, T = 120 min) was 0, PPM and the “H2O2 PPM” value ([2]; Control Buffer, T = 0+) was 0 PPM. The “H2O2 PPM” value ([2]; Control Buffer, T = 12 min) was 0 PPM, the “H2O2 PPM” value ([2]; Control Buffer, T = 30 min) was 0 PPM and the “H2O2 PPM” value ([2]; Control Buffer, T = 120 min) was 0 PPM. The “H2O2 PPM” value ([3]; AATCC Detergent, T = 0+) was 0 PPM, the “H2O2 PPM” value ([3]; AATCC Detergent, T = 12 min) was 0 PPM and the “H2O2 PPM” value ([3]; AATCC Detergent, T = 30 min) was 0 PPM. For the same compound, the “H2O2 PPM” value ([3]; AATCC Detergent, T = 120 min) was >3 (hydrogen sulfite) PPM, the “H2O2 PPM” value ([3]; Control Buffer, T = 0+) was 0 PPM and the “H2O2 PPM” value ([3]; Control Buffer, T = 12 min) was 0 PPM. The “H2O2 PPM” value ([3]; Control Buffer, T = 30 min) was 0 PPM and the “H2O2 PPM” value ([3]; Control Buffer, T = 120 min) was 1 (hydrogen sulfite) PPM.
